The source of these data is US6204293A, “Inhibitors of protein isoprenyl transferases” (University of Pittsburgh, priority 1998, dated 2001).

The experiment addresses T1, Rat brain protein farnesyltransferase (Rattus norvegicus, UniProt Q02293+Q04631).
T1 construct: Rat brain protein farnesyltransferase activity is measured; from tissue; host or cells: rat brain
Nature of the experiment: % inhibition of farnesylation, scintillation proximity assay with biotin-K Ras B fragment. Type of experiment: biochemical. The conditions noted are these: for % inhibition at 1 × 10^-6 M / inhibition at 1 µM: Table 2, 1 × 10^-6 M; for inhibition at 1 µM: read-out: % inhibition at 1 × 10^-6 M; for inhibition at 0.1 µM: read-out: % inhibition at 1 × 10^-7 M; for % inhibition at 1 × 10^-5 M: Table 1. The gist of the method:
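Rat brain enzyme, purified through three steps, in a scintillation proximity assay kit with biotin-K Ras B fragment substrate at 0.1 mM final. Value is % inhibition of farnesylation.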
Background: SPA uses beads or plates that emit light when radiolabelled molecules are held near them.

The structures appear in SMILES notation. Counter-ions that a name gives are not always drawn. Like-named read-outs stand apart in the source and are kept apart here.

T1 sequence (Q02293 whole entry, one chain of several): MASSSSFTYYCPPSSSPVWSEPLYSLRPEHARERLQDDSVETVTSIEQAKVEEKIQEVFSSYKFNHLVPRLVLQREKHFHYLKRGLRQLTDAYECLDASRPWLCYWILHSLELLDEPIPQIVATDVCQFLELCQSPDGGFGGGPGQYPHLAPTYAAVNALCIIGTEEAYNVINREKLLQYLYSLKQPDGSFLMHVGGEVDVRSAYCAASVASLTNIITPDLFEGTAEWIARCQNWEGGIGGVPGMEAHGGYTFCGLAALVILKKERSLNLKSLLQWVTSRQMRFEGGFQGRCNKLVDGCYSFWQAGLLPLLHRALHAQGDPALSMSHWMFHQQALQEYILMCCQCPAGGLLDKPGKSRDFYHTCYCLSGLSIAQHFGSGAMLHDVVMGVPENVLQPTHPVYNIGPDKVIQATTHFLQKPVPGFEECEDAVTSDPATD

On to `CSCCC(NC(=O)c1ccc(CNC(CO)c2ccccc2)cc1-c1ccccc1)C(=O)O` (stereo not shown) [Example 657], for which the “% inhibition at 1 × 10^-6 M” value turned out to be 32%.
On to `CSCC[C@H](NC(=O)c1ccc(C[C@H]2CC[C@@H](c3ccccc3)CC2)cc1-c1ccccc1C)C(=O)O` [Example 790], for which the “% inhibition at 1 × 10^-6 M” value is listed as 88%.
As to `CCC(=O)N(CCCc1ccc(C(=O)N[C@@H](CCSC)C(=O)O)c(-c2ccccc2C)c1)C1CCCCC1` [Example 1145], the “% inhibition at 0.1 μM (*)” value (Table 6, * footnote 0.1 μM (title: 0.1 mM)) came to 83%.
Turning to `CSCC[C@H](NC(=O)c1ccc(CNC(Cc2ccccc2)Cc2ccccc2)cc1-c1ccccc1C)C(=O)O` [Example 523], for the setting “Table 3, 1 × 10^-7 M”, the “% inhibition at 1 × 10^-7 M” value worked out at 97%.
Still for that read-out and setting: then `CCSC[C@H](CC1CCCCC1)N(Cc1ccc(C(=O)N[C@@H](CCSC)C(=O)O)c(-c2ccccc2C)c1)S(=O)(=O)c1ccccc1` [Example 951], with 71%.
Consider `Cc1ccccc1-c1cc(CN(C2CC2)C(C)(C)Cc2ccccc2)ccc1C(=O)N[C@@H](CCS(C)(=O)=O)C(=O)O` [Example 319], for which the “% inhibition at 1 × 10^-6 M” value is listed as 98%.
Still for that read-out and setting: then `CSCC[C@H](NC(=O)c1ccc(CNCCSc2ccccc2)cc1-c1ccccc1)C(=O)O` [Example 667], with 83%.
With `CSCC[C@H](NC(=O)c1ccc(OC/C=C(\C)CCC=C(C)C)cc1-c1ccccc1C)C(=O)O` [Example 546, N-[4-geranyloxy-2-(2-methylphenyl)benzoyl]methionine, lithium salt], the inhibition at 1 µM amounted to 97%.
For `CCOC[C@H](CC1CCCCC1)OCc1ccc(C(=O)N[C@@H](CCSC)C(=O)O)c(-c2ccccc2C)c1` [Example 525, N-[4-(3-Cyclohexyl-1-ethoxypropan-2-yl)oxymethyl-2-(2-methylphenyl)benzoyl]methionine lithium salt], the inhibition at 1 µM is 99%.
Regarding `CSCC[C@H](NC(=O)c1ccc(COCc2ccc(-c3ccc(C=O)cc3)o2)cc1-c1ccccc1C)C(=O)O` [Example 448, N-[4-(5-(4-formylphenyl)furan-2-ylmethoxymethyl)-2-(2-methylphenyl)benzoyl]methionine lithium salt], the inhibition at 0.1 µM is 92%.
With `CSCC[C@H](NC(=O)c1ccc(CN[C@@H](/C=C\CC(C)C)CC2CCCCC2)cc1-c1ccccc1)C(=O)O` [Example 665], the “% inhibition at 1 × 10^-6 M” value came to 55%.
For the molecule `CSCC[C@H](NC(=O)c1ccc(CN(C)CCC2CCCCC2)cc1-c1ccccc1C)C(=O)[O-].[Li+]` [Example 608], for the setting “Table 4, 1 × 10^-8 M”, the “% inhibition at 1 × 10^-8 M” value was found to be 91%.
Take `CSCC[C@H](NC(=O)c1ccc(CNCCN2CCOCC2)cc1-c1ccccc1)C(=O)O` [Example 365]: the “% inhibition at 1 × 10^-5 M” value worked out at 97%.
Regarding `CSCC[C@H](NC(=O)c1ccc(CNc2ccc(-c3ccccc3)cc2)cc1-c1ccccc1)C(=O)O` [Example 700], the “% inhibition at 1 × 10^-5 M” value amounted to 68%.
Turning to `COc1ccc(CSCc2ccc(C(=O)N[C@@H](CCSC)C(=O)O)c(-c3ccccc3C)c2)cc1` [Example 558, N-[4-(4-methoxybenzyl)thiomethyl-2-(2-methylphenyl)benzoyl]methionine, lithium salt], under “Table 3, 1 × 10^-7 M”, the inhibition at 0.1 µM came out at 87%.
As for `CSCC[C@H](NC(=O)c1ccc(/C=C/c2ccc(Oc3cccc([N+](=O)[O-])c3)cc2)cc1-c1ccccc1C)C(=O)O` [Example 861], the “% inhibition at 1 × 10^-7 M” value (Table 3, 1 × 10^-7 M) was 65%.
On to `CSCC[C@H](NC(=O)c1ccc(CNCCc2c[nH]c3ccccc23)cc1-c1ccccc1C)C(=O)O` [Example 519], for which the “% inhibition at 1 × 10^-7 M” value (Table 3, 1 × 10^-7 M) came to 89%.
Turning to `CSCC[C@H](NC(=O)c1ccc(COC(CCC2CCCCC2)c2cnnn2C)cc1-c1ccccc1C)C(=O)O` (stereo partly shown) [Example 1225, N-[4-(1-(1-Methyl-1,2,3-triaz-5-yl)-3-cyclohexylpropan-1-yloxymethyl)-2-(2-methylphenyl)benzoyl]methionine lithium salt], the inhibition at 0.01 µM (read-out: % inhibition at 0.01 μM (**), Table 6, ** footnote 0.01 μM (title: 0.01 mM)) is 92%.
With `CSCC[C@H](NC(=O)c1ccc(CO[C@@H](CC2CCCCC2)CN2CCOCC2)cc1-c1ccccc1C)C(=O)O` [Example 885, N-[4-(3-Cyclohexyl-1-morpholin-4-ylpropan-2-yl)oxymethyl-2-(2-methylphenyl)benzoyl]methionine trifluoroacetate salt], under “read-out: % inhibition at 1 × 10^-8 M, Table 4, 1 × 10^-8 M”, the inhibition at 0.01 µM is 95%.

By % inhibition is commonly meant the percentage by which the read-out fell short of the control. Read a high % inhibition as a response far below the control. The inhibition is the share of the control response that was lost under treatment.
